Values of other authors in patent US20200085789A1, “USE OF A PROTEASOME INHIBITOR FOR THE TREATMENT OF CENTRAL NERVOUS SYSTEM (CNS) CANCERS” (Celgene International II Sàrl, priority 2017, published 2020).

Conditions: in vivo; cited from earlier work

CC(C)C[C@H](NC(=O)[C@H](Cc1ccccc1)NC(=O)c1cnccn1)B(O)O [BTZ, bortezomib, reference compound]
crossing of the blood brain barrier: does not cross the blood brain barrier
